# Assay results as given in ChEMBL document CHEMBL1150196, “Isolation and structure of cytostatic steroidal saponins from the African medicinal plant Balanites aegyptica” (1991).
# System: P388
# Assay: Cytotoxicity against mouse P388 cells
# Assay type: functional
# Conditions: read-out: ED50 (the source's name)
row,SMILES,EC50 [µg/mL]
1,C[C@H]1CC[C@@]2(OC1)O[C@H]1C[C@H]3[C@@H]4CC=C5C[C@@H](O[C@@H]6O[C@H](CO)[C@@H](O[C@@H]7O[C@H](CO)[C@@H](O)[C@H](O[C@@H]8O[C@H](CO)[C@@H](O)[C@H](O)[C@H]8O)[C@H]7O)[C@H](O)[C@H]6O[C@@H]6O[C@@H](C)[C@H](O)[C@@H](O)[C@H]6O)CC[C@]5(C)[C@H]4CC[C@]3(C)[C@H]1[C@@H]2C [BALANITIN 4],0.41
2,O=c1[nH]cc(F)c(=O)[nH]1 [FLUOROURACIL],0.08
3,C[C@H]1CC[C@@]2(OC1)O[C@H]1C[C@H]3[C@@H]4CC=C5C[C@@H](O[C@@H]6O[C@H](CO)[C@@H](O[C@@H]7O[C@H](CO)[C@@H](O)[C@H](O)[C@H]7O)[C@H](O)[C@H]6O[C@@H]6O[C@@H](C)[C@H](O)[C@@H](O)[C@H]6O)CC[C@]5(C)[C@H]4CC[C@]3(C)[C@H]1[C@@H]2C [BALANITIN 6],0.21
4,C[C@H]1CC[C@@]2(OC1)O[C@H]1C[C@H]3[C@@H]4CC=C5C[C@@H](O[C@@H]6O[C@H](CO)[C@@H](O[C@@H]7O[C@H](CO)[C@@H](O)[C@H](O[C@@H]8OC[C@@H](O)[C@H](O)[C@H]8O)[C@H]7O)[C@H](O)[C@H]6O[C@@H]6O[C@@H](C)[C@H](O)[C@@H](O)[C@H]6O)CC[C@]5(C)[C@H]4CC[C@]3(C)[C@H]1[C@@H]2C [BALANITIN 7],0.22
5,C[C@H]1CC[C@@]2(OC1)O[C@H]1C[C@H]3[C@@H]4CC=C5C[C@@H](O[C@@H]6O[C@H](CO)[C@@H](O[C@@H]7O[C@H](CO)[C@@H](O)[C@H](O[C@@H]8O[C@@H](C)[C@H](O)[C@@H](O)[C@H]8O)[C@H]7O)[C@H](O)[C@H]6O[C@@H]6O[C@@H](C)[C@H](O)[C@@H](O)[C@H]6O)CC[C@]5(C)[C@H]4CC[C@]3(C)[C@H]1[C@@H]2C [BALANITIN 5],2.4
